Experiment [1] concerns HCV replicon RNA in replicon cells (Huh-7). The experiment in a line: HCV replicon assay. The experiment is classed as cell-based. The conditions noted are these: Huh-7 replicon cells, 3 days incubation, reduction of HCV RNA (Quantigene). Here is the method:
The replicon cells (Huh-7) contain replicating HCV replicon RNA, which was modified in the structural region (replacing the structural region with a neomycin resistance marker). Survival of the replicon cells under G418 selection relies on the replication of HCV RNA and subsequently expression of neomycin phosphoryltransferase. The ability of modified nucleoside libraries and compounds to suppress HCV RNA replication was determined using the Quantigene Assay Kit from Bayer. The assay measures the reduction of HCV RNA molecules in the treated cells. Replicon cells were incubated at 37° C. for 3 days in the presence of nucleoside libraries and compounds before harvested for detection. HCV subgenomic replicon cell line was provided by Dr. Bartenschlager. The assay protocol was modified based on literature procedure (V. Lohmann, F. Korner, J. O. Koch, U. Herian, L. Theilmann, R. Bartenschlager, Science, 1999, 285, 110–113).

For experiment [2], the system named is Bovine viral diarrhea virus (BVDV) (strain NADL). The experiment is described as follows: Assay for inhibition of BVDV. The experiment is classed as cell-based. The conditions noted are these: MDBK cells. Here is the method: Bovine viral diarrhea virus (BVDV) (strain NADL) was provided by Dr. Ruben Donis and propagated in MDBK cells (ATCC). The nucleoside libraries and compounds were tested utilizing the modified protocol (V. B. Vassilev, M. S. Collett, R. O. Donis, J. Viol. 1997, 71, 471–478; S. G. Bagginski, D. C. Pevear, M. Seipel, S. C. C. Sun, C. A. Benetatos, S. K. Chunduru, C. M. Rice, M. S. Collett, Proc. Natl. Acad. Sci. U.S.A. 2000, 97, 7981–7986)

Among the data in US7217815B2, “2-beta -modified-6-substituted adenosine analogs and their use as antiviral agents” (Valeant Pharmaceuticals North America, priority 2002, dated 2007) are EC50 values, retold here.

With `CSc1cccc(Nc2ncnc3c2ncn3[C@@H]2O[C@H](CO)[C@@H](O)[C@@]2(C)O)c1` [Compound S1-4, N^6-[3-(Methylthio)phenyl]-9H-(2′-β-C-methyl-β-D-ribofuranosyl)adenine], the EC50 in experiment [1] and in experiment [2] was over 100 µM in each case.

Consider `C[C@@]1(O)[C@H](O)[C@@H](CO)O[C@H]1n1cnc2c(NC[C@H]3CCCO3)ncnc21` [Compound S1-6, N^6-(R-Tetrahydrofurfuryl)-9H-(2′-β-C-methyl-β-D-ribofuranosyl)adenine], for which the EC50 in experiment [1] and in experiment [2] was over 100 µM throughout.

As to `CCOc1ccccc1CNc1ncnc2c1ncn2[C@@H]1O[C@H](CO)[C@@H](O)[C@@]1(C)O` [Compound S1-7, N^6-(2-Ethoxybenzyl)-9H-(2′-β-C-methyl-β-D-ribofuranosyl)adenine], the values for the EC50 in experiment [1] and in experiment [2] were 10 to 100 µM and over 100 µM, respectively.

In the case of `CC1(C)OCC(CNc2ncnc3c2ncn3[C@@H]2O[C@H](CO)[C@@H](O)[C@@]2(C)O)O1` (stereo partly drawn) [Compound S1-8, N^6-(2,2-Dimethyl-1,3-dioxolane-4-methyl)-9H-(2′-β-C-methyl-β-D-ribofuranosyl)adenine], the EC50 in experiment [1] and in experiment [2] was over 100 µM throughout.

As to `C[C@@]1(O)[C@H](O)[C@@H](CO)O[C@H]1n1cnc2c(NCCO)ncnc21` [Compound S1-9, N^6-[2-(Hydroxy)ethyl]-9H-(2′-β-C-methyl-β-D-ribofuranosyl)adenine], the values for the EC50 in experiment [1] and in experiment [2] were 10 to 100 µM and over 100 µM, respectively.

Regarding `C[C@@]1(O)[C@H](O)[C@@H](CO)O[C@H]1n1cnc2c(NN)ncnc21` [Compound S1-11, 6-(Hydrazinyl)-9H-(2′-β-C-methyl-β-D-ribofuranosyl)purine], the EC50 in experiment [1] is under 10 µM; in experiment [2], 25 to 100 µM.

With `CN(C)Nc1ncnc2c1ncn2[C@@H]1O[C@H](CO)[C@@H](O)[C@@]1(C)O` [Compound S1-12, 6-(N,N-Dimethylhydrazino)-9H-(2′-β-C-methyl-β-D-ribofuranosyl)purine], the values for the EC50 in experiment [1] and in experiment [2] were under 10 µM and under 25 µM, respectively.

`C[C@@]1(O)[C@H](O)[C@@H](CO)O[C@H]1n1cnc2c(N(N)CCO)ncnc21` [Compound S1-13, 6-[N^1-(Hydroxyethyl)hydrazino]-9H-(2′-β-C-methyl-β-D-ribofuranosyl)purine]: the figures for the EC50 in experiment [1] and in experiment [2] were under 10 µM and over 100 µM, respectively.

Consider `C[C@@]1(O)[C@H](O)[C@@H](CO)O[C@H]1n1cnc2c(NNC=O)ncnc21` [Compound S1-14, 6-[(N^2-formyl)hydrazino]-9H-(2′-β-C-methyl-β-D-ribofuranosyl)purine], for which the EC50 in experiment [1] is 10 to 100 µM; in experiment [2], over 100 µM.

Consider `CN(N)c1ncnc2c1ncn2[C@@H]1O[C@H](CO)[C@@H](O)[C@@]1(C)O` [Compound S1-15, 6-(N^1-methylhydrazino)-9H-(2′-β-C-methyl-β-D-ribofuranosyl)purine], for which the figures for the EC50 in experiment [1] and in experiment [2] were under 10 µM and over 100 µM, respectively.

Take `COC(=O)NNc1ncnc2c1ncn2[C@@H]1O[C@H](CO)[C@@H](O)[C@@]1(C)O` [Compound S1-16]: the EC50 is under 10 µM in experiment [1] and 25 to 100 µM in experiment [2].

In the case of `CC(=O)NNc1ncnc2c1ncn2[C@@H]1O[C@H](CO)[C@@H](O)[C@@]1(C)O` [Compound S1-17, 6-[N^2-(Acetyl)hydrazino]-9H-(2′-β-C-methyl-β-D-ribofuranosyl)purine], the EC50 in experiment [1] was under 10 µM; in experiment [2], under 25 µM.

On to `C[C@@]1(O)[C@H](O)[C@@H](CO)O[C@H]1n1cnc2c(NNS(C)(=O)=O)ncnc21` [Compound S1-18], for which the results for the EC50 in experiment [1] and in experiment [2] were under 10 µM and 25 to 100 µM, respectively.

For the compound `C[C@@]1(O)[C@H](O)[C@@H](CO)O[C@H]1n1cnc2c(NO)ncnc21` [Compound S1-19, 6-Hydroxyamino-9H-(2′-β-C-methyl-β-D-ribofuranosyl)purine], the EC50 in experiment [1] is under 10 µM; in experiment [2], 25 to 100 µM.

Turning to `CON(C)c1ncnc2c1ncn2[C@@H]1O[C@H](CO)[C@@H](O)[C@@]1(C)O` [Compound S1-20, 6-(N,O-Dimethylhydroxylamine)-9H-(2′-β-C-methyl-β-D-ribofuranosyl)purine], the EC50 in experiment [1] was 10 to 100 µM; in experiment [2] it was over 100 µM.

With `CC(C)(C)OC(=O)NOc1ncnc2c1ncn2[C@@H]1O[C@H](CO)[C@@H](O)[C@@]1(C)O` [Compound S1-21, 6-(N-(t-Butyloxycarbonyl)aminoxy]-9H-(2′-β-C-methyl-β-D-ribofuranosyl)purine], the EC50 in experiment [1] was under 10 µM; in experiment [2] it was over 100 µM.

As to `C[C@@]1(O)[C@H](O)[C@@H](CO)O[C@H]1n1cnc2c(ONC(=O)OCc3ccccc3)ncnc21` [Compound S1-22, 6-[(N-Benzyloxycarbonyl)aminoxy]-9H-(2′-β-C-methyl-β-D-ribofuranosyl)purine], the EC50 in experiment [1] is under 10 µM; in experiment [2], over 100 µM.

`C[C@@]1(O)[C@H](O)[C@@H](CO)O[C@H]1n1cnc2c(NCCN)ncnc21` [Compound S2-1, N^6-(2-Aminoethyl)-9H-(2′-β-C-methyl-β-D-ribofuranosyl)adenine]: the EC50 in experiment [1] was under 10 µM; in experiment [2], 25 to 100 µM.

With `C[C@@]1(O)[C@H](O)[C@@H](CO)O[C@H]1n1cnc2c(NCCNc3ncnc4c3ncn4[C@@H]3O[C@H](CO)[C@@H](O)[C@@]3(C)O)ncnc21` [Compound S2-2, N,N′-Bis[N^6-9H-(2′-β-C-methyl-β-D-ribofuranosyl)adenin-6-yl]ethylenediamine], the EC50 in experiment [1] (Hepatitis C virus, 72 h) is 10 to 100 µM; in experiment [2] (Bovine viral diarrhea virus isolates and strains) it was over 100 µM.

Regarding “N^6-(2-Phenylpropyl)-9H-(2′-β-C-methyl-β-D-ribofuranosyl)adenine [Compound S1-5]”, the EC50 in experiment [1] and in experiment [2] was over 100 µM in each case.

What is called EC50 is the concentration giving half of the maximal effect.
